# Measured values published in PubChem BioAssay (NCI).
#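 Five compound concentrations were applied to cells in 96-well plates for 48 hours; endpoints were derived by simple linear interpolation of the resulting dose-response curve. GI50 marks 50% less growth. TGI: total growth inhibition.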
# Experiments:
# Assay in all cases: inhibition of tumour cell growth, NCI panel, 48 h
# 786-0 renal = system: 786-0 renal
# ACHN renal = system: ACHN renal
# HCT-15 colon = system: HCT-15 colon
# IGROV1 ovarian = system: IGROV1 ovarian
# NCI-H226 lung = system: NCI-H226 lung
# NCI-H522 lung = system: NCI-H522 lung
# SK-MEL-28 melanoma = system: SK-MEL-28 melanoma
# U251 CNS = system: U251 CNS
# UO-31 renal = system: UO-31 renal
# OVCAR-3 ovarian = system: OVCAR-3 ovarian
Structure (SMILES),GI50 (786-0 renal),TGI (786-0 renal),GI50 (ACHN renal),TGI (ACHN renal),GI50 (HCT-15 colon),TGI (HCT-15 colon),GI50 (IGROV1 ovarian),TGI (IGROV1 ovarian),GI50 (NCI-H226 lung),TGI (NCI-H226 lung),GI50 (NCI-H522 lung),TGI (NCI-H522 lung),GI50 (SK-MEL-28 melanoma),TGI (SK-MEL-28 melanoma),GI50 (U251 CNS),TGI (U251 CNS),GI50 (UO-31 renal),TGI (UO-31 renal),TGI (OVCAR-3 ovarian),GI50 (OVCAR-3 ovarian)
O=C1C2=C(C(=O)c3c(O)ccc(O)c31)N(c1cccnc1)Cc1ccccc1O2,0.211 µM,0.605 µM,0.0612 µM,0.195 µM,0.167 µM,0.648 µM,0.289 µM,0.96 µM,0.703 µM,1.82 µM,0.0288 µM,0.112 µM,0.266 µM,0.644 µM,0.651 µM,2.76 µM,0.182 µM,0.398 µM,,
O=C1C[C@@H]2[C@@H](C=CC23CC3)N1O,,> 100 µM,,,,,,> 100 µM,,> 100 µM,,> 100 µM,,> 100 µM,,> 100 µM,,> 100 µM,,
CC(=O)O[C@H]1CC[C@@]2(C)C(=CC[C@@H]3C2CC[C@]2(C)C(=O)NC(=O)CC32)C1 (stereo partly specified),,> 100 µM,,> 100 µM,,> 100 µM,,> 100 µM,,> 100 µM,,86.2 µM,,> 100 µM,,> 100 µM,,> 100 µM,,
CN1C(=O)C(C)(C)NS1(=O)=O,,> 100 µM,,> 100 µM,,> 100 µM,,> 100 µM,,,,,,> 100 µM,,> 100 µM,,> 100 µM,> 100 µM,
Cc1cc(N(CCC#N)CCC#N)ccc1/C=C(\NC(=O)/C=C/c1ccccc1)NC(=O)Nc1ccccc1C,,> 100 µM,,> 100 µM,,> 100 µM,,> 100 µM,,> 100 µM,,,,> 100 µM,,42.7 µM,,> 100 µM,> 100 µM,
C[C@]12CC/C(=N\O)C[C@@H]1CC[C@@H]1[C@@H]2CC[C@]2(C)/C(=N/O)CC[C@@H]12,26.7 µM,72.3 µM,50.1 µM,> 100 µM,43.3 µM,> 100 µM,17.4 µM,62.6 µM,,,21 µM,58.3 µM,> 100 µM,> 100 µM,35.2 µM,> 100 µM,31.5 µM,78.4 µM,59.1 µM,17.4 µM
S=P(C1CCCCC1)(C1CCCCC1)C(c1cccnc1)N1CCCC1 (stereo unspecified),,31.5 µM,,34.7 µM,,> 100 µM,,33.8 µM,,38 µM,,41.2 µM,,> 100 µM,,46.6 µM,,,> 100 µM,
O=c1/c(=C/c2ccccc2O)sc2nc3ccccc3n12,,> 100 µM,,> 100 µM,,49.8 µM,,85.1 µM,,> 100 µM,,,,71.6 µM,,,,> 100 µM,98.7 µM,
O=C(/C=C/c1ccc[nH]1)c1ccccc1,,> 100 µM,,> 100 µM,,> 100 µM,,,,> 100 µM,,> 100 µM,,> 100 µM,,> 100 µM,,> 100 µM,> 100 µM,
COC(=O)c1ccc(CS(=O)(=O)c2ccccc2)cc1,,> 100 µM,,> 100 µM,,> 100 µM,,> 100 µM,,> 100 µM,,,,> 100 µM,,> 100 µM,,> 100 µM,> 100 µM,
COc1cccc(-c2cc(=O)c3cc(C)c(C)c(C(=O)O)c3o2)c1,,> 100 µM,,> 100 µM,,> 100 µM,,> 100 µM,,,,> 100 µM,,> 100 µM,,> 100 µM,,> 100 µM,> 100 µM,
COc1ccc(C(=O)OC2C(OC3C(O)COC(O[C@H]4C[C@H]5[C@@H]6CC=C7C[C@@H](O)CC[C@]7(C)[C@H]6CC[C@]5(C)[C@H]4[C@H](C)C(=O)CCC(C)C)C3OC(=O)C(C)C)OCC(O)C2O)cc1 (stereo partly specified),< 0.00275 µM,2.99 µM,0.111 µM,4.82 µM,0.218 µM,3.92 µM,0.0219 µM,4.22 µM,,,0.0306 µM,0.273 µM,0.011 µM,0.0612 µM,0.00381 µM,4.16 µM,0.0115 µM,0.067 µM,5.88 µM,0.884 µM
Cc1ccc2oc(=O)cc(CC(=O)O)c2c1,,> 100 µM,,> 100 µM,,> 100 µM,,> 100 µM,,> 100 µM,,> 100 µM,,> 100 µM,,> 100 µM,,,> 100 µM,
CC1=CC[C@@H]2[C@@H](CC[C@@]2(C)O)C(C)(C)[C@H]1CC[C@@H]1[C@@]2(C)CC[C@@H](O)C(C)(C)O[C@@H]2CC[C@]1(C)O,,34.8 µM,,58.7 µM,,38 µM,,,,,,,,35.7 µM,,39.8 µM,,34.3 µM,> 100 µM,
CCOC(=O)C1Nc2ccc([N+](=O)[O-])cc2[C@H]2OCC[C@@H]12 (stereo partly specified),,> 100 µM,,> 100 µM,,> 100 µM,,> 100 µM,,> 100 µM,,> 100 µM,,> 100 µM,,> 100 µM,,,> 100 µM,
Cc1c(C)n(CC(O)CNC2CCCCC2C)c2ccccc12 (stereo unspecified),12.5 µM,25.6 µM,13.3 µM,26 µM,12.6 µM,26.5 µM,16 µM,31.9 µM,17.2 µM,35.9 µM,,,14 µM,27.4 µM,13.8 µM,26.7 µM,10.8 µM,23.4 µM,29.9 µM,16.4 µM
COC1=CC(=O)c2c(O)c3c(c(O)c2C1=O)OC1(Oc2c(cc4cc(C)oc(=O)c4c2O)CC1O)C3O (stereo unspecified),,> 100 µM,,> 100 µM,,> 100 µM,,66.5 µM,,,,54.6 µM,,> 100 µM,,> 100 µM,,> 100 µM,> 100 µM,
CC(C)COC(=O)N1N=NC2C3CC(=O)C(O3)C21 (stereo unspecified),,> 100 µM,,> 100 µM,,> 100 µM,,> 100 µM,,,,> 100 µM,,> 100 µM,,> 100 µM,,> 100 µM,> 100 µM,
CC(=O)OC1COC(n2c(O)c(N=Nc3ccc([N+](=O)[O-])cc3)c3cc(Br)c([N+](=O)[O-])cc32)C(OC(C)=O)C1OC(C)=O (stereo unspecified),,> 100 µM,,93.6 µM,,> 100 µM,,70.3 µM,,> 100 µM,,> 100 µM,,> 100 µM,,> 100 µM,,,> 100 µM,
CC(C)(C)c1cc(O)c2c(c1O)C(=O)CCC2,,> 100 µM,,> 100 µM,,> 100 µM,,> 100 µM,,,,,,> 100 µM,,> 100 µM,,,76.5 µM,
CN(C(=N)c1ccccc1)c1ccccc1,,> 100 µM,,,,> 100 µM,,> 100 µM,,> 100 µM,,,,> 100 µM,,> 100 µM,,> 100 µM,> 100 µM,
